Drawing on US10508085B2, “Compounds and methods for IDO and TDO modulation, and indications therefor” (Plexxikon Inc., priority 2016, dated 2019), this text covers IC50 for 21 compounds.

Assay [1] concerns the target T1, human TDO (TDO-expressing HEK293 cells) (Homo sapiens, UniProt P48775).
T1 construct: expressed in transfected cells
The assay can be described thus: Cell based kynurenine assay, TDO-expressing HEK293 cell clones. The conditions noted are these: TDO-expressing HEK293 cells, 24 hours incubation; geometric mean; read-out: HEK293 TDO Kynurenine GMean IC50 (μM) (Cellular Assay). The method in brief:
(§1)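 Steps: seed IDO1- or TDO-expressing HEK293 cells at 2.5×10^4 per well; add compound dilutions; incubate 24 h; transfer supernatant and determine kynurenine; derive IC50 via nonlinear regression of percent inhibition.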

The target of assay [2] is T2, Human Tryptophan 2,3-dioxygenase (TDO) (Homo sapiens, UniProt P48775).
T2 construct: His tag (N); made in house; host or cells: E. coli
T2 sequence (P48775 whole entry): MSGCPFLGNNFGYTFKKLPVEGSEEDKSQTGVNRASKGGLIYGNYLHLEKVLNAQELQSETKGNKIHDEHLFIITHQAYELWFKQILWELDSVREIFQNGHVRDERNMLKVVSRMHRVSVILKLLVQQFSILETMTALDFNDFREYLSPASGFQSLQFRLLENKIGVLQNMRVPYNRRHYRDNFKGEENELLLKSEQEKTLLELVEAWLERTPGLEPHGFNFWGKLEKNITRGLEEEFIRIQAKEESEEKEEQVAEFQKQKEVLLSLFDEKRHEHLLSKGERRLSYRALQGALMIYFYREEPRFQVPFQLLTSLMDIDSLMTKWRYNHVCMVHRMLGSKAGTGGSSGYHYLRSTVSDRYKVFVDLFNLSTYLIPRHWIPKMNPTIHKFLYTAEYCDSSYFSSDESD
The assay can be described thus: Human TDO enzymatic assay (kynurenine level). The class given is biochemical. The conditions noted are these: 1 nM TDO, 350 μM L-Trp; geometric mean; read-out: TDO GMean: IC50 (μM) (Biochemical Assay). Put shortly:
(§2)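 Reactions were stopped with TCA, converting N-formylkynurenine to kynurenine for quantitation, with IC50 by nonlinear regression. IDO: 6 nM enzyme, 10 μM L-Trp, 20 min RT. TDO: 1 nM enzyme, 350 μM L-Trp, 70 min RT, both in pH 6.5 buffer.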

For assay [3], the target named is T3, human IDO (IDO1-expressing HEK293 cells) (Homo sapiens, UniProt P14902).
T3 construct: expressed in transfected cells
T3 sequence (P14902 whole entry): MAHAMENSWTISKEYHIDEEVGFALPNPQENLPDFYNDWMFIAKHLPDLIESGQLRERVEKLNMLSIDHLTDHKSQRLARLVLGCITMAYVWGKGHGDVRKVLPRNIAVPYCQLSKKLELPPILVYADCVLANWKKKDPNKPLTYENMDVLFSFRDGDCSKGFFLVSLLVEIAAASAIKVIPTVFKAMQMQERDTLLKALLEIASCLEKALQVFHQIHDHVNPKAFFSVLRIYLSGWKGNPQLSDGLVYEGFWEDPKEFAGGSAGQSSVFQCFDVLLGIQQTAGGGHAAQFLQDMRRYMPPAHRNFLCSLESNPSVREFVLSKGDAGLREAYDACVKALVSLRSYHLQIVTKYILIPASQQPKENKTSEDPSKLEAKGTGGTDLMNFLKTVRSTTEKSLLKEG
The assay can be described thus: Cell based kynurenine assay, IDO1-expressing HEK293 cell clones. The conditions noted are these: IDO1-expressing HEK293 cells, 24 hours incubation; geometric mean; read-out: HEK293 IDO1 Kynurenine GMean IC50 (μM) (Cellular Assay). The method in brief: as §1

The target of assay [4] is T4, Human Indoleamine 2,3-dioxygenase (IDO) (Homo sapiens, UniProt P14902).
T4 construct: His tag (N); made in house; host or cells: E. coli
T4 sequence (P14902 whole entry): as above
The assay can be described thus: Human IDO enzymatic assay (kynurenine level). The class given is biochemical. The conditions noted are these: 6 nM IDO, 10 μM L-Trp; geometric mean; read-out: IDO1 GMean: IC50 (μM) (Biochemical Assay). The method in brief: as §2

T1 sequence (P48775 whole entry): as the sequence (P48775 whole entry) above

For orientation: IC50 means the concentration at which inhibition is half-maximal. Turning to `O=C(NCC(F)(F)F)N1CCC(C(F)(F)C(O)c2c(F)c(Cl)cc3cn[nH]c23)CC1` (stereo not drawn) [Compound P-0378, 4-(2-(5-chloro-6-fluoro-1H-indazol-7-yl)-1,1-difluoro-2-hydroxyethyl)-N-(2,2,2-trifluoroethyl) piperidine-1-carboxamide], the IC50 in assay [1], in assay [2], in assay [3] and in assay [4] was 0.0001 to 10 µM in each case.

On to `NC(=O)N1CCC(C(F)(F)C(O)c2c(F)c(Cl)cc3cn[nH]c23)CC1` (stereo not drawn) [Compound P-0379, 4-(2-(5-chloro-6-fluoro-1H-indazol-7-yl)-1,1-difluoro-2-hydroxyethyl) piperidine-1-carboxamide], for which the IC50 in assay [1], in assay [2], in assay [3] and in assay [4] was 0.0001 to 10 µM throughout.

As for `OC1(c2cc(Cl)cc3cn[nH]c23)C2CC3CC(C2)CC1C3` [Compound P-0380, (1R,2R,5S)-2-(5-chloro-1H-indazol-7-yl)adamantan-2-ol], the IC50 in assay [1] is 0.0001 to 10 µM; in assay [2], 0.0001 to 10 µM; in assay [3], > 10 µM; in assay [4], 0.0001 to 10 µM.

Take `O[C@H](c1cc(Cl)cc2cn[nH]c12)C12CCC(CC1)CC2` [Compound P-0381, (S)-bicyclo[2.2.2] octan-1-yl(5-chloro-1H-indazol-7-yl)methanol]: the IC50 in assay [1], in assay [2], in assay [3] and in assay [4] was 0.0001 to 10 µM each time.

For the compound `O[C@@H](c1cc(Cl)cc2cn[nH]c12)C12CCC(CC1)CC2` [Compound P-0382, (R)-bicyclo[2.2.2] octan-1-yl(5-chloro-1H-indazol-7-yl)methanol], the IC50 in assay [1] is > 10 µM; in assay [2], > 200 µM; in assay [3], 0.0001 to 10 µM; in assay [4], 0.0001 to 10 µM.

Turning to `CC(C)(C)OC(=O)N1CCC(C(C)(C)[C@H](O)c2c(F)c(Cl)cc3cn[nH]c23)CC1` [Compound P-0383, tert-butyl (S)-4-(1-(5-chloro-6-fluoro-1H-indazol-7-yl)-1-hydroxy-2-methylpropan-2-yl)piperidine-1-carboxylate], the 50% inhibitory concentration (IC50) in assay [1], in assay [2], in assay [3] and in assay [4] was 0.0001 to 10 µM each time.

With `CC(C)(C)OC(=O)N1CCC(C(C)(C)[C@@H](O)c2c(F)c(Cl)cc3cn[nH]c23)CC1` [Compound P-0384, tert-butyl (R)-4-(1-(5-chloro-6-fluoro-1H-indazol-7-yl)-1-hydroxy-2-methylpropan-2-yl)piperidine-1-carboxylate], the half-inhibitory concentration (IC50) was > 10 µM in assay [1], 0.0001 to 10 µM in assay [2], > 10 µM in assay [3] and 0.0001 to 10 µM in assay [4].

Take `CC(C)(C1CCN(C(=O)NC(=O)c2ccccc2)CC1)C(O)c1cc(Cl)cc2cn[nH]c12` (stereo not drawn) [Compound P-0385, N-benzoyl-4-(1-(5-chloro-1H-indazol-7-yl)-1-hydroxy-2-methylpropan-2-yl)piperidine-1-carboxamide]: the half-inhibitory concentration (IC50) in assay [1], in assay [2], in assay [3] and in assay [4] was 0.0001 to 10 µM in each case.

For the compound `CC(C)(C1CCN(C(=O)NCc2ccccc2)CC1)C(O)c1cc(Cl)cc2cn[nH]c12` (stereo not drawn) [Compound P-0386, N-benzyl-4-(1-(5-chloro-1H-indazol-7-yl)-1-hydroxy-2-methylpropan-2-yl)piperidine-1-carboxamide], the IC50 in assay [1], in assay [2], in assay [3] and in assay [4] was 0.0001 to 10 µM each time.

Turning to `CC(C)(C1CCN(C(=O)NC2CCC2)CC1)C(O)c1cc(Cl)cc2cn[nH]c12` (stereo not drawn) [Compound P-0387, 4-(1-(5-chloro-1H-indazol-7-yl)-1-hydroxy-2-methylpropan-2-yl)-N-cyclobutylpiperidine-1-carboxamide], the IC50 in assay [1], in assay [2], in assay [3] and in assay [4] was 0.0001 to 10 µM in each case.

`COCCNC(=O)N1CCC(C(C)(C)C(O)c2cc(Cl)cc3cn[nH]c23)CC1` (stereo not drawn) [Compound P-0388, 4-(1-(5-chloro-1H-indazol-7-yl)-1-hydroxy-2-methylpropan-2-yl)-N-(2-methoxyethyl) piperidine-1-carboxamide]: the half-maximal inhibitory concentration (IC50) in assay [1], in assay [2], in assay [3] and in assay [4] was 0.0001 to 10 µM each time.

In the case of `CC(C)(C1CCN(C(=O)Nc2ccccn2)CC1)C(O)c1cc(Cl)cc2cn[nH]c12` (stereo not drawn) [Compound P-0389, 4-(1-(5-chloro-1H-indazol-7-yl)-1-hydroxy-2-methylpropan-2-yl)-N-(pyridin-2-yl)piperidine-1-carboxamide], the IC50 in assay [1], in assay [2], in assay [3] and in assay [4] was 0.0001 to 10 µM throughout.

For `CC(C)(C1CCN(C(=O)Nc2ccnc(N3CCOCC3)c2)CC1)C(O)c1cc(Cl)cc2cn[nH]c12` (stereo not drawn) [Compound P-0390, 4-(1-(5-chloro-1H-indazol-7-yl)-1-hydroxy-2-methylpropan-2-yl)-N-(2-morpholinopyridin-4-yl)piperidine-1-carboxamide], the IC50 in assay [1], in assay [2], in assay [3] and in assay [4] was 0.0001 to 10 µM each time.

Take `CC(C)(C1CCN(C(=O)N2CCOCC2)CC1)C(O)c1cc(Cl)cc2cn[nH]c12` (stereo not drawn) [Compound P-0391, (4-(1-(5-chloro-1H-indazol-7-yl)-1-hydroxy-2-methylpropan-2-yl)piperidin-1-yl)(morpholino) methanone]: the IC50 in assay [1], in assay [2], in assay [3] and in assay [4] was 0.0001 to 10 µM each time.

For `Cc1noc(C)c1NC(=O)N1CCC(C(C)(C)C(O)c2cc(Cl)cc3cn[nH]c23)CC1` (stereo not drawn) [Compound P-0392, 4-(1-(5-chloro-1H-indazol-7-yl)-1-hydroxy-2-methylpropan-2-yl)-N-(3,5-dimethylisoxazol-4-yl)piperidine-1-carboxamide], the half-maximal inhibitory concentration (IC50) in assay [1], in assay [2], in assay [3] and in assay [4] was 0.0001 to 10 µM each time.

On to `CC(C)(C1CCN(C(=O)Nc2ccc(Cl)c(C(F)(F)F)c2)CC1)C(O)c1cc(Cl)cc2cn[nH]c12` (stereo not drawn) [Compound P-0393, 4-(1-(5-chloro-1H-indazol-7-yl)-1-hydroxy-2-methylpropan-2-yl)-N-(4-chloro-3-(trifluoromethyl)phenyl)piperidine-1-carboxamide], for which the IC50 in assay [1], in assay [2], in assay [3] and in assay [4] was 0.0001 to 10 µM each time.

In the case of `Cc1ccc(NC(=O)N2CCC(C(C)(C)C(O)c3cc(Cl)cc4cn[nH]c34)CC2)cc1Cl` (stereo not drawn) [Compound P-0394, 4-(1-(5-chloro-1H-indazol-7-yl)-1-hydroxy-2-methylpropan-2-yl)-N-(3-chloro-4-methylphenyl) piperidine-1-carboxamide], the half-maximal inhibitory concentration (IC50) in assay [1], in assay [2], in assay [3] and in assay [4] was 0.0001 to 10 µM throughout.

For the compound `CC(C)(C1CCN(C(=O)Nc2cc(Cl)cc(Cl)c2)CC1)C(O)c1cc(Cl)cc2cn[nH]c12` (stereo not drawn) [Compound P-0395, 4-(1-(5-chloro-1H-indazol-7-yl)-1-hydroxy-2-methylpropan-2-yl)-N-(3,5-dichlorophenyl) piperidine-1-carboxamide], the IC50 in assay [1], in assay [2], in assay [3] and in assay [4] was 0.0001 to 10 µM each time.

With `COc1cc(NC(=O)N2CCC(C(C)(C)C(O)c3cc(Cl)cc4cn[nH]c34)CC2)cc(OC)c1` (stereo not drawn) [Compound P-0396, 4-(1-(5-chloro-1H-indazol-7-yl)-1-hydroxy-2-methylpropan-2-yl)-N-(3,5-dimethoxyphenyl) piperidine-1-carboxamide], the IC50 in assay [1], in assay [2], in assay [3] and in assay [4] was 0.0001 to 10 µM each time.

For the compound `Cc1ccc(NC(=O)N2CCC(C(C)(C)C(O)c3cc(Cl)cc4cn[nH]c34)CC2)cc1` (stereo not drawn) [Compound P-0397, 4-(1-(5-chloro-1H-indazol-7-yl)-1-hydroxy-2-methylpropan-2-yl)-N-(p-tolyl) piperidine-1-carboxamide], the IC50 in assay [1], in assay [2], in assay [3] and in assay [4] was 0.0001 to 10 µM in each case.

Regarding `CC(C)(C1CCN(C(=O)Nc2ccc(F)cc2F)CC1)C(O)c1cc(Cl)cc2cn[nH]c12` (stereo not drawn) [Compound P-0398, 4-(1-(5-chloro-1H-indazol-7-yl)-1-hydroxy-2-methylpropan-2-yl)-N-(2,4-difluorophenyl) piperidine-1-carboxamide], the 50% inhibitory concentration (IC50) in assay [1], in assay [2], in assay [3] and in assay [4] was 0.0001 to 10 µM in each case.
